Data published in patent publication US20090253794A1, “Fibroblast Activator, Collagen Production Promoter, Collagen Contraction Promoter, Hyaluronic Acid Production Promoter, ATP Production Promoter, Melanin Formation Inhibitor, and Agent for External Application to the Skin” (priority 2005, published 2009).
Marks after values point to notes of the source that are not given here.

What was measured:
Assay type in all cases: cell-based
[1] = system: normal human skin fibroblasts; test: ATP production promotion (ATP Lite luminescence); conditions: for ATP amount (average ATP amount without addition of sample is 100): 48 hr, n = 4, mean ± standard deviation
Method: The evaluation was performed according to the following procedure. Normal human skin fibroblasts (manufactured by KURABO INDUSTRIES LTD.) were plated on a 96 well microplate at 2.0×10^4 cells per well. As the medium for plating, commercially available Medium 106S (manufactured by KURABO INDUSTRIES LTD.) containing 2% FBS, heparin 10 μg/ml and hydrocortisone 1 μg/ml was used. After culture for 24 hr, the medium was changed to a medium supplemented with various concentrations of conagenin, and the cells were cultured for 48 hr.
Then, the medium was removed from the 96 well microplate, and the amount of ATP synthesized in the cell was measured using a ATP measurement kit (ATP Lite, manufactured by PerkinElmer, Inc.). That is, the cells were washed with PBS(−), the cell membrane was lysed with a Lysis solution, a luminescence substrate was added, and the mixture was transferred to a black 96 well microplate (View Plate). The chemical luminescence was measured with a luminometer. The effect of the sample was evaluated using, as an index, the average ATP amount without addition of the sample as 100. For statistical processing, parametric multiple comparison (Dunnett Type) relative to control group without addition of the sample was performed, wherein a risk rate of less than 5% is indicated with *, a risk rate of less than 1% is indicated with ** and a risk rate of less than 0.1% is indicated with ***.

human skin fibroblasts = test: type I collagen gel contractability after glucose modification (glycated collagen); conditions: one week, negative control = 1
Method: A collagen solution (collagen was used trade name I-AC, manufactured by KOUKEN Co., Ltd.) was prepared on ice according to the explanation insert attached to the product, and the collagen was gelled in 12 wells at 37° C. A glucose-6-phosphate solution was added to the final concentration of 100 mM, and the mixture was incubated at 37° C. for 7 days to allow glycation reaction. Unreacted glucose-6-phosphate was removed, 1×10^5 cells/ml of fibroblast was sown on the collagen gel, and cultured for 5 hr using a 0.25% FBS/DMEM medium. The medium was removed, and […] or 0.25% FBS/DMEM medium containing PBS as negative control was added. The gel was detached from the dish wall, and the level of contraction of the gelled collagen was examined. As a positive control, DMEM medium containing 10% FBS was used. The medium was changed every 2 days and, one week later, the medium was removed by suction. The diameter of the collagen gel was measured, the area was calculated, and the area ratio was compared to that of the negative control as 1.

[2] = system: normal skin fibroblasts derived from human; test: fibroblast activating action evaluation test by the MTT reduction method; conditions: 48 hr culture, control = 100
Method: The present inventors performed a fibroblast activating action evaluation test by the MTT reduction method and using normal skin fibroblasts derived from human (see TIM Mosmann; Journal of Immunological Methods p 55-63, 1983).
Using DMEM (Gibco) containing 5% FBS (fetal bovine serum; purchased from NICHIREI CORPORATION), normal skin fibroblasts derived from human (manufactured by KURABO INDUSTRIES LTD.) were plated on a 96 well plate at a density of 2×10^4 cells/well, and cultured at 37° C., 5% CO2 for 24 hr. After removing the medium, the cells were washed with PBS(−) (NISSUI PHARMACEUTICAL CO., LTD.), the medium was changed to DMEM containing 1% FBS supplemented with each concentration of conagenin, and the cells were cultured at 37° C., 5% CO2. The blank was […] containing 1% FBS, which was free of test specimen. After culture for 48 hr, the absorbance at 550 nm was measured by MTT reduction method, based on which the MTT reduction amount was determined. The cell activation rate was shown in a percentage relative to the absorbance of additive-free cultured cell (control) as 100.

[3] = system: normal human skin fibroblasts; test: collagen gel contraction promoting effect; conditions: one week, negative control = 1
Method: A collagen solution (collagen was used trade name I-AC manufactured by KOUKEN Co., Ltd.) dissolved in normal human skin fibroblasts (manufactured by KURABO INDUSTRIES LTD., 1×10^5 cells/ml) was prepared on ice according to the explanation insert attached to the product, and the collagen was gelled in 6 wells at 37° C. Thereafter, 0.25% FBS/DMEM medium containing a sample ([…]) was added. The gel was detached from the dish wall, and the level of contraction of the gelled collagen was examined. As a positive control, DMEM medium containing 10% FBS instead of 0.25% FBS was used. The medium was changed every 2 days and, one week later, the medium was removed by suction. The diameter of the collagen gel was measured, the area was calculated, and the area ratio was compared to that of the negative control as 1.

C[C@@H]([C@@H](C)O)[C@@H](O)C(=O)N[C@@](C)(CO)C(=O)O [conagenin, (2S)—N-[(2R,3S,4R)2,4-dihydroxy-3-methyl-pentanoyl]-2-methylserine]
ATP amount (average ATP amount without addition of sample is 100) ([1]; 0.20 μM): 120 ± 18 | ATP amount (average ATP amount without addition of sample is 100) ([1]; 0.39 μM): 146 ± 30*** | ATP amount (average ATP amount without addition of sample is 100) ([1]; 0.78 μM): 128 ± 8* | ATP amount (average ATP amount without addition of sample is 100) ([1]; 1.56 μM): 133 ± 8** | ATP amount (average ATP amount without addition of sample is 100) ([1]; 3.13 μM): 150 ± 20*** | ATP amount (average ATP amount without addition of sample is 100) ([1]; 6.25 μM): 155 ± 26*** | ATP amount (average ATP amount without addition of sample is 100) ([1]; 12.5 μM): 160 ± 7*** | ATP amount (average ATP amount without addition of sample is 100) ([1]; 25 μM): 153 ± 4*** | ATP amount (average ATP amount without addition of sample is 100) ([1]; 50 μM): 168 ± 13*** | ATP amount (average ATP amount without addition of sample is 100) ([1]; 100 μM): 164 ± 16*** | concentration at which a statistically significant ATP production promoting action was observed ([1]; Dunnett comparison with the group without addition): not less than 0.39 μM | collagen gel area ratio (human skin fibroblasts; 1 μM): 0.81 | collagen gel area ratio (human skin fibroblasts; 100 μM): 0.64 | collagen gel area ratio (human skin fibroblasts; 5 mM): 0.49 | cell activation rate ([2]; 0.01 μM): 105% | cell activation rate ([2]; 0.05 μM): 120% | cell activation rate ([2]; 0.1 μM): 125% | cell activation rate ([2]; 1 μM): 111% | cell activation rate ([2]; 10 μM): 113% | cell activation rate ([2]; 40 μM): 124% | cell activation rate ([2]; 80 μM): 113% | cell activation rate ([2]; 160 μM): 113% | cell activation rate ([2]; 310 μM): 113% | collagen gel area ratio ([3]; 1 μM in 0.25% FBS/DMEM): 0.47 | collagen gel area ratio ([3]; 100 μM in 0.25% FBS/DMEM): 0.44 | collagen gel area ratio ([3]; 5 mM in 0.25% FBS/DMEM): 0.42
